# Test results from US11142515B2, “Pyrazolyl-ureas as kinase inhibitors” (RESPIVERT LIMITED, priority 2014, dated 2021).
# Experiments:
# [1] = target: T1, p38 MAPKα isoform (MAPK14) (Homo sapiens, UniProt Q16539); assay: p38 MAPKα enzyme inhibition (Z-LYTE FRET); assay type: biochemical; settings: Table 2A; read-out: IC50 Values for Enzyme Inhibition p38 MAPKα
# T1 construct: purchased Life Technologies
# How it was run: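 Activity was measured indirectly as phosphorylation of a MAPKAP-K2-derived FRET peptide. Enzyme (added at 40 ng/mL) was preincubated 2 h at RT with compound (added solutions 40–0.0012 μg/mL).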
# [2] = target: T2, p38MAPKγ (MAPK12) (Homo sapiens, UniProt P53778); assay: p38 MAPKγ enzyme inhibition (Z-LYTE FRET); assay type: biochemical; settings: Table 2A; read-out: IC50 Values for Enzyme Inhibition p38 MAPKγ
# T2 construct: purchased Life Technologies
# T2 sequence (P53778 1-367): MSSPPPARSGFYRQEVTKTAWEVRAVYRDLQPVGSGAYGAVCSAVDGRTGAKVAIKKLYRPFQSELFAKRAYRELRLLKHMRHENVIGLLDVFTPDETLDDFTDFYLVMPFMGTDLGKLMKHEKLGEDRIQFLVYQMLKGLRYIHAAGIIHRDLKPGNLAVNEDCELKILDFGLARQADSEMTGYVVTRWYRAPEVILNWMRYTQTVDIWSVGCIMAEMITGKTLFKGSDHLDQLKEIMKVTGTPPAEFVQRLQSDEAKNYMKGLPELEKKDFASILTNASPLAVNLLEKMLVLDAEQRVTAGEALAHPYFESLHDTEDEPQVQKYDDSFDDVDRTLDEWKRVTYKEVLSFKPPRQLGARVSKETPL
# How it was run: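 Enzyme (added at 800 ng/mL) was preincubated 2 h at RT with compound (solutions of 40 to 0.0012 μg/mL), then FRET peptide (8 μM) and ATP (400 μM), both as added, were reacted 1 h at RT. Protease development followed for 1 h; phosphorylation was read as the coumarin/fluorescein emission ratio.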
# [3] = target: T3, Hck (Homo sapiens, UniProt P08631); assay: Hck enzyme inhibition (Z-LYTE FRET); assay type: biochemical; settings: Table 2A
# T3 construct: purchased Life Technologies
# Description: (§1) The enzyme inhibitory activities of compounds disclosed herein were determined by FRET using synthetic peptides labelled with both donor and acceptor fluorophores (Z-LYTE, Life Technologies, Paisley, UK).
# The relevant enzyme (1000 ng/mL, 1400 ng/mL or 2000 ng/mL respectively, 2.5 μL) was incubated with the test compound (either 40 μg/mL, 12 μg/mL, 4 μg/mL, 1.2 μg/mL, 0.4 μg/mL, 0.12 μg/mL, 0.04 μg/mL, 0.012 μg/mL, 0.004 μg/mL or 0.0012 μg/mL, 2.5 μL each) for 2 h at RT. The FRET peptides (8 μM, 2.5 μL), and appropriate ATP solutions (2.5 μL, 800 μM for c-Src, and 60 μM ATP for HCK and Syk) were then added to the enzyme/compound mixtures and incubated for 1 h at RT. Development reagent (protease, 5 μL) was added for 1 h prior to detection in a fluorescence microplate reader (EnVision, Perkin Elmer).
# (§2) In all cases, the site-specific protease cleaves non-phosphorylated peptide only and eliminates the FRET signal. Phosphorylation levels of each reaction were calculated using the ratio of coumarin emission (donor) over fluorescein emission (acceptor), for which low ratios indicate high phosphorylation and high ratios indicate low phosphorylation levels.
# [4] = target: T4, GSK 3α enzyme isoform (Homo sapiens, UniProt P49840); assay: GSK 3α enzyme inhibition (Z-LYTE FRET); assay type: biochemical; settings: Table 2A; read-out: IC50 Values for Enzyme Inhibition GSK3α
# T4 construct: purchased Life Technologies
# Description: as §1
# The GSK3a protein (500 ng/mL, 2.5 μL) was incubated with the test compound (2.5 μL at either 40 μg/mL, 12 μg/mL, 4 μg/mL, 1.2 μg/mL, 0.4 μg/mL, 0.12 μg/mL, 0.04 μg/mL, 0.012 μg/mL, 0.004 μg/mL or 0.0012 μg/mL) for 2 h at RT. The FRET peptide (8 μM, 2.5 μL), which is a phosphorylation target for GSK3α, and ATP (40 μM, 2.5 μL) was then added to the enzyme/compound mixture and the resulting mixture incubated for 1 h at RT. Development reagent (protease, 5 μL) was added for 1 h prior to detection in a fluorescence microplate reader (EnVision, Perkin Elmer).
# as §2
# [5] = system: IL-8 release in d-U937 cells; assay: LPS-induced IL-8 release in d-U937 cells; assay type: cell-based; settings: Homo sapiens, dU937, LPS 0.1 μg/mL 4 h
# Description: (§3) U937 cells, a human monocytic cell line, were differentiated into macrophage-type cells by incubation with PMA (100-200 ng/mL) for 48 to 72 h. Cells were pre-incubated with final […] concentrations of test compound for 2 h and were then stimulated with LPS (0.1 μg/mL; from E. coli: O111:B4, Sigma) for 4 h. The supernatant was collected for determination of TNFα and IL-8 concentrations by sandwich ELISA (Duo-set, R&D systems). […] The relative 50% effective concentration (REC50) was determined from the resultant concentration-response curve. The inhibition of IL-8 production was calculated at each concentration of test compound by comparison with vehicle control.
# [6] = system: TNFα release in d-U937 cells; assay: LPS-induced TNFα release in d-U937 cells; assay type: cell-based; settings: Homo sapiens, dU937; read-out: LPS Induced Release TNFα REC50 (dU937); further: relative to 10 µg/mL BIRB-796
# Description: as §3
# T3 sequence (P08631 22-526): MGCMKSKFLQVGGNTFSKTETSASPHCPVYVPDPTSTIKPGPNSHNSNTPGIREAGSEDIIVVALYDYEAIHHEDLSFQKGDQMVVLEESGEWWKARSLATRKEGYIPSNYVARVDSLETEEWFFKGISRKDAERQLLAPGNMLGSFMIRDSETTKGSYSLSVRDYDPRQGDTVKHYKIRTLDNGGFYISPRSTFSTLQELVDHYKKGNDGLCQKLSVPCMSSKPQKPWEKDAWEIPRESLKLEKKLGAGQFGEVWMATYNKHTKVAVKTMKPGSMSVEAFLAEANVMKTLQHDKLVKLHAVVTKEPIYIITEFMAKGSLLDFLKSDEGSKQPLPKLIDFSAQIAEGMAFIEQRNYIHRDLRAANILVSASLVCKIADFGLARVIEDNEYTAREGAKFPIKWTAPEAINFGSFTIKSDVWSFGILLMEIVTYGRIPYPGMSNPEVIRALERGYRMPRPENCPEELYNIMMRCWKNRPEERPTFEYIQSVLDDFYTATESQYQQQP
# T1 sequence (Q16539 whole entry, canonical isoform): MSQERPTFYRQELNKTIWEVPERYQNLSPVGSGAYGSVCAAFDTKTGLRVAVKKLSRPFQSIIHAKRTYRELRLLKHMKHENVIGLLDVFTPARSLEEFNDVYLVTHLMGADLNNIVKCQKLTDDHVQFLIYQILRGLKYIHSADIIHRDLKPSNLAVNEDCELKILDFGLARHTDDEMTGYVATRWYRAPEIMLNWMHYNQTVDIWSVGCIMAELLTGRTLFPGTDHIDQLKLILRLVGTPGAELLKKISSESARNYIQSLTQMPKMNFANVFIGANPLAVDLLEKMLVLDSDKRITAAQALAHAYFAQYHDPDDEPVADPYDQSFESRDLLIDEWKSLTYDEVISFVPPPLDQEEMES
# T4 sequence (P49840 whole entry, canonical isoform): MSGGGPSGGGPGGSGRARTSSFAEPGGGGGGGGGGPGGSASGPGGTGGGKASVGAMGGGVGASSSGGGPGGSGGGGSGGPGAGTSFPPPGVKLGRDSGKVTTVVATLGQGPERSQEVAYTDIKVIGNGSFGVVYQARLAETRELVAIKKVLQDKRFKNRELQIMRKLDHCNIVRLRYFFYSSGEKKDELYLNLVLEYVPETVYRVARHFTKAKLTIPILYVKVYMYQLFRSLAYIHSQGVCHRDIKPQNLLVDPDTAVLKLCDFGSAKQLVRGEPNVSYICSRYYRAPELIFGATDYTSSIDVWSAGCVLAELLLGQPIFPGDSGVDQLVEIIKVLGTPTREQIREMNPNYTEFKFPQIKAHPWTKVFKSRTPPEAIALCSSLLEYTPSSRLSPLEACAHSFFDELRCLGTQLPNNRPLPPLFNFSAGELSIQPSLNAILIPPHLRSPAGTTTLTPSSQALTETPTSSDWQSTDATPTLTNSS
SMILES,IC50 [1] [nM],IC50 [2] [nM],IC50 [3] [nM],IC50 [4] [nM],IC50 [5] [nM],EC50 [6] [nM]
CC(C)c1ccc(-n2nc(C(C)(C)C)cc2NC(=O)Nc2ccc(OCc3ccnc(Nc4cnccn4)c3)c3ccccc23)cc1 [Example 41],189,> 16000,1430,3570,43.8,3
Cc1ccc(-n2nc(C(C)(C)C)cc2NC(=O)Nc2ccc(OCc3ccnc(Nc4cnc(C5CC5)cn4)c3)c3ccccc23)cc1 [Example 16],87,> 7150,355,> 15700,89.6,144
Cc1ccc(-n2nc(C(C)(C)C)cc2NC(=O)Nc2ccc(OCc3ccnc(Nc4cncc(C)n4)c3)c3ccccc23)cc1 [Example 20],15,62,52,9040,1.3,1.3
Cc1ccc(-n2nc(C(C)(C)C)cc2NC(=O)Nc2ccc(OCc3ccnc(Nc4cncc(CO)n4)c3)c3ccccc23)cc1 [Example 21],5,31,12,1580,7.9,0.6
"Cc1ccc(-n2nc(C(C)(C)C)cc2NC(=O)Nc2ccc(OCc3ccnc(Nc4cnc(C(=O)N(C)C)cn4)c3)c3ccccc23)cc1 [Example 9, 5-((4-(((4-(3-(3-(tert-Butyl)-1-(p-tolyl)-1H-pyrazol-5-yl)ureido)naphthalen-1-yl)oxy)methyl)pyridin-2-yl)amino)-N,N-dimethylpyrazine-2-carboxamide]",134,9240,1500,3320,8.8,1.3
COc1ccc(-n2nc(C(C)(C)C)cc2NC(=O)Nc2ccc(OCc3ccnc(Nc4cnccn4)c3)c3ccccc23)cn1 [Example 12],14,198,39,> 16200,9.3,16.8
COCCNC(=O)c1cnc(Nc2cc(COc3ccc(NC(=O)Nc4cc(C(C)(C)C)nn4-c4ccc(C)s4)c4ccccc34)ccn2)cn1 [Example 43],12,394,53,7920,41.4,16.8
COc1ccc(-n2nc(C(C)(C)C)cc2NC(=O)Nc2ccc(OCc3ccnc(Nc4cncc(C5CC5)n4)c3)c3ccccc23)cc1 [Example 22],22,377,14,1710,1.6,2.1
COCCNC(=O)c1cnc(Nc2cc(COc3ccc(NC(=O)Nc4cc(C(C)(C)C)nn4-c4csc(C)c4)c4ccccc34)ccn2)cn1 [Example 44],11,454,58,> 14200,52.2,88.2
Cc1ccc(-n2nc(C(C)(C)C)cc2NC(=O)Nc2ccc(OCc3ccnc(Nc4cnccn4)c3)c3ccccc23)cc1C(F)(F)F [Example 52],116,> 15000,316,> 15000,> 1500,18.7
"Cc1ccc(-n2nc(C(C)(C)C)cc2NC(=O)Nc2ccc(OCc3ccnc(Nc4cncc(CC(=O)N(C)C)n4)c3)c3ccccc23)cc1 [Example 8, 2-(6-((4-(((4-(3-(3-(tert-butyl)-1-(p-tolyl)-1H-pyrazol-5-yl)ureido)naphthalen-1-yl)oxy)methyl)pyridin-2-yl)amino)pyrazin-2-yl)-N,N-dimethylacetamide]",1,43,10,138,10.3,3.9

# Further compounds by falling IC50 [1], results first:
IC50 [1] [nM],IC50 [2] [nM],IC50 [3] [nM],IC50 [4] [nM],IC50 [5] [nM],EC50 [6] [nM],SMILES
87,473,110,2800,15.6,5.8,Cc1ccc(-n2nc(C(C)(C)C)cc2NC(=O)Nc2ccc(OCc3ccnc(Nc4cncc(C5CCC5)n4)c3)c3ccccc23)cc1 [Example 47]
85,1950,68,7050,268,0.7,COc1ccc(-n2nc(C(C)(C)C)cc2NC(=O)Nc2ccc(OCc3ccnc(Nc4cnccn4)c3)c3ccccc23)cc1Cl [Example 46]
38,334,18,1130,4.5,3.1,Cc1ccc(-n2nc(C(C)(C)C)cc2NC(=O)Nc2ccc(OCc3ccnc(Nc4cncc(C5CC5)n4)c3)c3ccccc23)s1 [Example 24]
24,569,142,> 10000,19.3,14.3,CCc1cnc(Nc2cc(COc3ccc(NC(=O)Nc4cc(C(C)(C)C)nn4-c4ccc(C)cc4)c4ccccc34)ccn2)cn1 [Example 37]
22,441,111,> 4960,25.4,25.6,"Cc1ccc(-n2nc(C(C)(C)C)cc2NC(=O)Nc2ccc(OCc3ccnc(Nc4cnc(C)c(C)n4)c3)c3ccccc23)cc1 [Example 4, 1-(3-(tert-Butyl)-1-(p-tolyl)-1H-pyrazol-5-yl)-3-(4-((2-((5,6-dimethylpyrazin-2-yl)amino)pyridin-4-yl)methoxy)naphthalen-1-yl)urea]"
22,356,113,7080,30.3,7.1,CC(C)(C)c1cc(NC(=O)Nc2ccc(OCc3ccnc(Nc4cnccn4)c3)c3ccccc23)n(-c2cccc(Cl)c2)n1 [Example 50]
13,274,7,1200,8.3,5.4,CC(C)(C)c1cc(NC(=O)Nc2ccc(OCc3ccnc(Nc4cncc(C5CC5)n4)c3)c3ccccc23)n(-c2ccc(O)cc2)n1 [Example 34]
9,171,42,3430,102,12.1,Cc1ccc(-n2nc(C(C)(C)C)cc2NC(=O)Nc2ccc(OCc3ccnc(Nc4cnc(C(=O)N5CCOCC5)cn4)c3)c3ccccc23)cc1 [Example 35]
3,37,10,922,90.7,8.5,"CC(=O)NCc1cnc(Nc2cc(COc3ccc(NC(=O)Nc4cc(C(C)(C)C)nn4-c4ccc(C)cc4)c4ccccc34)ccn2)cn1 [Example 6, N-((5-((4-(((4-(3-(3-(tert-butyl)-1-(p-tolyl)-1H-pyrazol-5-yl)ureido)naphthalen-1-yl)oxy)methyl)pyridin-2-yl)amino)pyrazin-2-yl)methyl)acetamide]"
